Results on 11 compounds are retold here after ChEMBL document CHEMBL1201862, “PubChem BioAssay data set” (2004).

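Protocol summary: plate cells (96-well), add compound at 5 concentrations, incubate 48 h, interpolate endpoints linearly. GI50 = concentration required for 50% inhibition of growth.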 The source made the active and inactive calls. No stated cut-off is given here; in the data, active = GI50 up to about 1.1 µM and inactive = higher.

Common to all, as to experiment: growth of human tumour cells (NCI), 48 h
The test system of assay [1] is BT-549.
For assay [2], the system named is M14.
The subject of assay [3] is T47D.
For assay [4], the system named is HOP-62.
The subject of assay [5] is ACHN.
Assay [6] relates to HCT-15.
Assay [7] relates to MDA-MB-231.
For assay [8], the system named is SF-268.
Assay [9] deals with MDA-MB-435.
Assay [10] concerns NCI-H460.
The test system of assay [11] is IGROV-1.
In assay [12] the test system is K562.
Assay [13] relates to A549.
In assay [14] the test system is SK-MEL-28.
Assay [15] concerns UO-31.
Assay [16] concerns NCI-H226.
In assay [17] the test system is UACC-257.
The test system of assay [18] is COLO 205.
Assay [19] has as its system Malme-3M.
Assay [20] relates to LOX IMVI.

As for `COc1ccc(CCCCl)c(C2=NCCc3cc(OC)c(OC)cc32)c1`, the GI50 is 37.8 µM (inactive) in assay [1]; 43.9 µM (inactive) in assay [2]; 46.1 µM (inactive) in assay [3]; 91.2 µM (inactive) in assay [4]; 68.1 µM (inactive) in assay [5]; 71.1 µM in assay [6]. Besides, the GI50 in [7] is 69.3 µM (inactive); in assay [8] it was 49.3 µM (inactive); in [9], 35.6 µM (inactive); in [10] it was 37.8 µM (inactive); in assay [11], 39.9 µM (inactive); in assay [12], 28.3 µM (inactive). In addition, the GI50 in assay [13] is 69.7 µM (inactive); in assay [14], 63.2 µM (inactive); in assay [15] it was 38 µM (inactive); in [16] it was 27.9 µM (inactive); in [17] it was 42.3 µM (inactive); in [18], 25.7 µM (inactive).

In the case of `CC(=O)N/N=C1/CC[C@@]2(C)C(=CC[C@H]3C4CCC(C(C)CCCC(C)C)[C@@]4(C)CCC32)C1(C)C` (some centres not stated), the GI50 was > 100 µM (inactive) in [1]; 48 µM (inactive) in assay [2]; 70.5 µM (inactive) in assay [3]; > 100 µM (inactive) in assay [4]; 62.4 µM (inactive) in [5]; 40.6 µM in assay [6]. The GI50 in assay [8] is 63 µM (inactive); in [9] it was 82 µM (inactive); in assay [19] it was > 100 µM (inactive); in [10], 32.1 µM (inactive); in assay [11] it was 57.4 µM (inactive); in [12], 15.9 µM (inactive). In addition, the GI50 in assay [13] was 31.1 µM (inactive); in assay [20], 3.94 µM (inactive); in assay [14] it was > 100 µM (inactive); in assay [15], 82 µM (inactive); in [16], > 100 µM (inactive); in [17] it was 36.6 µM (inactive). Also, the GI50 in [18] was 32.9 µM (inactive).

As to `CCC(=O)Nc1ccc(NS(=O)(=O)c2ccc(Cl)cc2)cc1`, the GI50 was > 100 µM (inactive) in assay [1]; > 100 µM (inactive) in [2]; > 100 µM (inactive) in [3]; > 100 µM (inactive) in [4]; > 100 µM (inactive) in [5]; above 100 µM in assay [6]. Besides, the GI50 in assay [8] is > 100 µM (inactive); in assay [9], > 100 µM (inactive); in assay [19], > 100 µM (inactive); in assay [10] it was > 100 µM (inactive); in assay [11], > 100 µM (inactive); in assay [12], 29.9 µM (inactive). Further, the GI50 in assay [13] is > 100 µM (inactive); in assay [20] it was > 100 µM (inactive); in assay [14], > 100 µM (inactive); in assay [15] it was > 100 µM (inactive); in assay [16], 19.5 µM (inactive); in assay [17] it was 87.7 µM (inactive). Besides, the GI50 in assay [18] is > 100 µM (inactive).

Turning to `C=CCc1cccc(C(=O)/C=C(O)/C=C/c2ccccc2Cl)c1O`, the GI50 in assay [1] was 37.4 µM (inactive); in assay [2], 24.5 µM (inactive); in assay [3], 9.48 µM (inactive); in assay [4] it was 16.6 µM (inactive); in assay [5], 23.3 µM (inactive); in assay [6], 8.39 µM. The GI50 in assay [7] was 36.7 µM (inactive); in [8], 20.5 µM (inactive); in [9], 12.4 µM (inactive); in [10] it was 24.9 µM (inactive); in [11] it was 0.352 µM (active); in assay [12] it was 2.11 µM (inactive). Besides, the GI50 in [13] was 8.91 µM (inactive); in assay [20], 7.01 µM (inactive); in assay [14], 10.5 µM (inactive); in assay [15], 9.18 µM (inactive); in [16], 18.8 µM (inactive); in assay [17], 13.8 µM (inactive). Also, the GI50 in assay [18] is 25.1 µM (inactive).

As to `Cc1ccc(C)c(NC(=O)C(=O)C(c2cnc3ccc([N+](=O)[O-])cc3n2)[N+](=O)[O-])c1` (configuration not stated), the GI50 is 53.5 µM (inactive) in assay [1]; 56.9 µM (inactive) in assay [2]; 38.5 µM (inactive) in assay [3]; 20.9 µM (inactive) in assay [4]; 26.6 µM (inactive) in [5]; 76.6 µM in assay [6]. For the same compound, the GI50 in [8] is > 100 µM (inactive); in [9] it was 46.2 µM (inactive); in [19], > 100 µM (inactive); in assay [10], 42.7 µM (inactive); in assay [11], 26.5 µM (inactive); in [12], 41.4 µM (inactive). For the same compound, the GI50 in assay [13] is 58.3 µM (inactive); in [14], > 100 µM (inactive); in [15], 29.2 µM (inactive); in assay [16] it was 34.1 µM (inactive); in assay [17], 38.6 µM (inactive); in assay [18], 60.8 µM (inactive).

In the case of `N#CCc1n[nH]c2nc(SCc3ccccc3)nc(N3CCCCC3)c12`, the GI50 in assay [1] was 18.6 µM (inactive); in [2], 19.4 µM (inactive); in [3], 19.5 µM (inactive); in assay [4], 20.4 µM (inactive); in assay [5], 21.2 µM (inactive); in assay [6] it was 32.7 µM. Moreover, the GI50 is 19.2 µM (inactive) in [8]; 19.9 µM (inactive) in assay [9]; 24.5 µM (inactive) in assay [19]; 19.6 µM (inactive) in assay [10]; 18.6 µM (inactive) in assay [12]; 19.3 µM (inactive) in assay [13]. Moreover, the GI50 in assay [20] was 21 µM (inactive); in [14] it was 20.5 µM (inactive); in assay [15], 20.1 µM (inactive); in assay [17], 20.8 µM (inactive); in assay [18], 17.9 µM (inactive).

Regarding `CCOC(=O)CCC(C(=O)OCC)n1nc2ccc(Nc3c(C)[n+]([O-])c4cc(Cl)ccc4[n+]3[O-])cc2n1` (configuration not stated), the GI50 in [1] is > 100 µM (inactive); in [2], > 100 µM (inactive); in assay [3], 32.9 µM (inactive); in assay [4], > 100 µM (inactive); in [5] it was > 100 µM (inactive); in [6], 88.1 µM. The GI50 in assay [8] is 39.1 µM (inactive); in assay [9], 69.7 µM (inactive); in assay [19] it was > 100 µM (inactive); in assay [10], 24.3 µM (inactive); in assay [11] it was > 100 µM (inactive); in assay [12], 82 µM (inactive). The GI50 was > 100 µM (inactive) in assay [13]; 58.3 µM (inactive) in assay [20]; 81.8 µM (inactive) in assay [15]; 62.4 µM (inactive) in assay [16]; 94.4 µM (inactive) in assay [17]; 75.7 µM (inactive) in assay [18].

For `O=C1CCCC2C(O)CCC[C@H]12` (some centres not stated), the GI50 in assay [1] is > 100 µM (inactive); in assay [2], > 100 µM (inactive); in [3], > 100 µM (inactive); in assay [4], > 100 µM (inactive); in assay [5] it was > 100 µM (inactive); in assay [6], above 100 µM. The GI50 in assay [7], in [8], in assay [19], in assay [10], in assay [11] and in assay [12] was > 100 µM (inactive) in each case. For the same compound, the GI50 is > 100 µM (inactive) in assay [13]; > 100 µM (inactive) in assay [20]; > 100 µM (inactive) in assay [14]; 51.1 µM (inactive) in assay [15]; > 100 µM (inactive) in [16]; > 100 µM (inactive) in assay [17]. Besides, the GI50 in [18] is > 100 µM (inactive).

For `Oc1c2c(c(O)c3ccccc13)C1(N=N2)c2ccccc2Oc2ccccc21`, the GI50 is 10.7 µM (inactive) in assay [1]; 8.38 µM (inactive) in assay [2]; 7.55 µM (inactive) in assay [3]; 16 µM (inactive) in [4]; 3.79 µM (inactive) in assay [5]; 2.65 µM in assay [6]. Also, the GI50 in assay [7] is 13.9 µM (inactive); in [8], 11.6 µM (inactive); in assay [9], 4.38 µM (inactive); in assay [19] it was 2.48 µM (inactive); in assay [10], 18.5 µM (inactive); in assay [11] it was 2.52 µM (inactive). The GI50 in assay [12] is 9.91 µM (inactive); in assay [13], 10 µM (inactive); in assay [20], 2.38 µM (inactive); in assay [14] it was 11.4 µM (inactive); in assay [15] it was 6.68 µM (inactive); in assay [17] it was 5.71 µM (inactive). In addition, the GI50 in assay [18] was 13 µM (inactive).

With `CCSc1nn(-c2c3ccccc3nc3ccccc23)c(=S)s1`, the GI50 is > 100 µM (inactive) in assay [1]; > 100 µM (inactive) in assay [2]; > 100 µM (inactive) in assay [3]; > 100 µM (inactive) in assay [4]; > 100 µM (inactive) in assay [5]; above 100 µM in [6]. Besides, the GI50 in [7], in [8], in [9], in assay [10], in [11] and in assay [12] was > 100 µM (inactive) in each case. The GI50 in assay [13], in assay [20], in assay [14], in assay [15], in assay [16] and in assay [17] was > 100 µM (inactive) in each case. Moreover, in assay [18], the GI50 was > 100 µM (inactive).

For `CN1C(=O)c2cccc3cc([N+](=O)[O-])cc(c23)C1=O`, the GI50 in [1] was > 10 µM (inactive); in [2] it was > 10 µM (inactive); in assay [3], > 10 µM (inactive); in assay [4], > 10 µM (inactive); in [5], > 10 µM (inactive); in assay [6] it was above 10 µM. The GI50 in assay [7] is > 10 µM (inactive); in assay [8], 9.25 µM (inactive); in assay [9], > 10 µM (inactive); in assay [19], > 10 µM (inactive); in assay [11] it was > 10 µM (inactive); in assay [12], > 10 µM (inactive). For the same compound, the GI50 in assay [13], in assay [20], in assay [14], in [17] and in assay [18] was > 10 µM (inactive) in each case.
